{"source": "patent US8470806B2", "about": "“Perhexiline for treating chronic heart failure” (Heart Metabolics Limited, priority 2004, dated 2013)", "key": {"patients with CHF [1]": {"tested_on": "patients with CHF", "experiment": "Minnesota Living with Heart Failure Questionnaire (MLHFQ)", "assay_type": "in vivo, human", "details": "for Minnesota living with heart failure questionnaire score: higher score = poorer quality of life", "description": "A standard 21-question MLHFQ was employed to determine if perhexiline affected patient quality of life. This is a well validated measure of symptomatology in heart failure (17) and includes questions to assess the ability to perform activities of daily living as well as questions gauging the severity of symptoms due to heart failure. Each question was scored out of 5. The sum of the scores were calculated where a higher score indicated a poorer quality of life. All patients completed the questionnaires alone and without assistance. […] The primary end-point for this study was pre-defined as VO2 max with the following secondary endpoints: MLHFQ score, LVEF, E:EA ratio, resting, low dose and high dose mean PSV during stress echocardiography and PCr t½. Therapy randomization of the ischemic and non-ischemic groups occurred separately but with similar protocols in order to allow for pre-hoc analysis of the primary endpoint in each group. […] Data were analyzed with SPSS 11.5 for Windows® and expressed as mean±standard error of mean. ANCOVA using baseline values as covariates was performed to test for significance of differences seen in the perhexiline vs. placebo groups following treatment."}, "[2]": {"tested_on": "patients with CHF (ischemic group)", "experiment": "Tissue Doppler / dobutamine stress echocardiography, ischemic group", "assay_type": "in vivo, human", "set-up": "Mean PSV (15 segments): unit not given beside the values", "description": "Tissue Doppler assessment of the left ventricle was performed at rest and analysed off-line using Echopac software in order to determine regional myocardial PSV from 15 left ventricular segments described in detail elsewhere (20). These segments were selected to include all areas supplied by the three major coronary arteries and for the greatest reproducibility for acquisition of PSV (21). (See FIG. 4) Following resting echocardiography dobutamine infusion was commenced via a syringe driver and incremented at 3 minute intervals from 5 mcg/kg/min to 10, 20, 30 and 40 mcg/kg/min. Digital loops of 15 views outlined above were stored at 90 seconds of each stage. Up to 1 mg of atropine was given if the hemodynamic response was submaximal. Electrocardiograms and blood pressure were monitored at each stage. End-points for termination of the test were attainment of ≧85% of the target heart rate, evidence of ischemia, or severe side effects from dobutamine. Data from all stages were analysed off-line as with the resting images. PSV data are expressed as velocity at rest, low dose dobutamine infusion ([…]) and peak dose dobutamine infusion (the last infusion stage before infusion terminated, which may include the addition of atropine)."}, "patients with CHF [3]": {"tested_on": "patients with CHF", "experiment": "Safety and tolerability in the 8-week study (side effects, corrected QT, liver function, neuropathy)", "description": "Following baseline studies, patients were randomized in a double-blind fashion to receive either perhexiline (n=28) or placebo (n=28) 100 mg twice daily. Blood was obtained at 1, 4, and 8 weeks after initiation of the drug for measurements of serum perhexiline levels with subsequent dose titration in order to prevent toxicity. Dose adjustments were advised as per a standard protocol by an unblinded physician. Identical dosage adjustments were also made for randomly allocated placebo-treated patients by the unblinded observer in order to ensure blinding of the investigators was maintained. After 8 weeks of treatment, patients were re-evaluated as above."}, "patients with CHF [4]": {"tested_on": "patients with CHF", "experiment": "Cardiopulmonary exercise test (treadmill, Weber protocol, respiratory gas analysis)", "assay_type": "in vivo, human", "details": "for VO2max: mean ± SEM", "description": "An embodiment of the invention will now be described by way of example only wherein a double-blind, randomised, placebo-controlled study was undertaken in order to investigate the effects of perhexiline on chronic heart failure. 56 patients with CHF were recruited and all provided written informed consent. Entry criteria were as follows: left ventricular ejection fraction (LVEF) <40%, optimally medicated heart failure with New York Heart Association (NYHA) Class II-III symptoms. Cardiopulmonary exercise testing with respiratory gas analysis, completion of the Minnesota Living with Heart Failure Questionnaire (MLHFQ) and 2-D echocardiography were performed at baseline on all patients. Incremental exercise testing with assessment of respiratory gas exchange was performed on a treadmill using the Weber protocol. Breath by breath respiratory gases were measured during exercise using a Pulmolab EX670 system mass spectrometer which was calibrated before every study. Raw data were averaged to 30 second intervals and oxygen consumption during peak exercise was obtained (VO2 max; ml/kg/min). Electrocardiograms and blood pressure were monitored throughout. Exercise was terminated at the subject's request due to fatigue or breathlessness. […] The primary end-point for this study was pre-defined as VO2 max with the following secondary endpoints: MLHFQ score, LVEF, E:EA ratio, resting, low dose and high dose mean PSV during stress echocardiography and PCr t½. Therapy randomization of the ischemic and non-ischemic groups occurred separately but with similar protocols in order to allow for pre-hoc analysis of the primary endpoint in each group. […] Data were analyzed with SPSS 11.5 for Windows® and expressed as mean±standard error of mean. ANCOVA using baseline values as covariates was performed to test for significance of differences seen in the perhexiline vs. placebo groups following treatment."}, "patients with CHF [5]": {"tested_on": "patients with CHF", "experiment": "NYHA class before and after treatment", "assay_type": "in vivo, human", "description": "56 patients with CHF were recruited and all provided written informed consent. Entry criteria were as follows: left ventricular ejection fraction (LVEF) <40%, optimally medicated heart failure with New York Heart Association (NYHA) Class II-III symptoms. Cardiopulmonary exercise testing with respiratory gas analysis, completion of the Minnesota Living with Heart Failure Questionnaire (MLHFQ) and 2-D echocardiography were performed at baseline on all patients."}, "patients with CHF [6]": {"tested_on": "patients with CHF", "experiment": "Resting echocardiography (LVEF, volumes, long-axis PSV, E:EA ratio)", "assay_type": "in vivo, human", "details": "for Long axis function: PSV of lateral mitral valve annulus", "description": "Echocardiography was performed with patients in the left lateral decubitus position using a Vingmed System V echocardiographic machine and a 2.5 MHz transducer. Images were stored digitally. Resting scans were acquired using standard echocardiographic windows for LVEF, transmitral valve Doppler, and resting tissue Doppler. […] Left ventricular volumes for calculation of LVEF were obtained using biplane echocardiography and the modified Simpson's formula. Volumes were averaged over 3 beats. In addition, on-line tissue Doppler peak systolic velocity (PSV) of the lateral mitral valve annulus was obtained as a reflection of left ventricular long-axis function. In theory, improving metabolic efficiency would also lead to an improvement in diastolic function of the left ventricle as energy is also required for cardiac relaxation. The ratio of peak E wave from transmitral valve Doppler vs. the E wave from tissue Doppler of the lateral mitral valve annulus (E:EA ratio) is a sensitive indicator of left ventricular end diastolic pressure (19). […] The primary end-point for this study was pre-defined as VO2 max with the following secondary endpoints: MLHFQ score, LVEF, E:EA ratio, resting, low dose and high dose mean PSV during stress echocardiography and PCr t½. Therapy randomization of the ischemic and non-ischemic groups occurred separately but with similar protocols in order to allow for pre-hoc analysis of the primary endpoint in each group. […] Data were analyzed with SPSS 11.5 for Windows® and expressed as mean±standard error of mean. ANCOVA using baseline values as covariates was performed to test for significance of differences seen in the perhexiline vs. placebo groups following treatment."}, "Serum perhexiline levels": {"experiment": "Serum perhexiline levels", "assay_type": "in vivo", "details": "human"}, "[7]": {"details": "Post, after 8 weeks of treatment"}, "[8]": {"details": "all patients of the perhexiline group, 8 weeks"}}, "data": [{"smiles": "C1CCC(C(CC2CCCCN2)C2CCCCC2)CC1", "note": "(centres unmarked) [Perhexiline, 2-(2,2-dicyclohexylethyl)piperidine]", "values": [{"measurement": "reduction of MLHFQ scores following treatment", "setting": "patients with CHF [1]; 8 weeks", "value": 24.4, "unit": "%"}, {"measurement": "Minnesota living with heart failure questionnaire score", "setting": "patients with CHF [1]; Post, after 8 weeks", "value": "34 ± 5"}, {"measurement": "Minnesota living with heart failure questionnaire score", "setting": "patients with CHF [1]; Pre (baseline)", "value": "45 ± 5"}, {"measurement": "Mean PSV (15 segments)", "setting": "[2]; Low Dose dobutamine, Post", "value": "5.0 ± 0.5"}, {"measurement": "Mean PSV (15 segments)", "setting": "[2]; Low Dose dobutamine, Pre", "value": "4.7 ± 0.3"}, {"measurement": "Mean PSV (15 segments)", "setting": "[2]; Peak Dose dobutamine, Post", "value": "8.2 ± 0.8"}, {"measurement": "Mean PSV (15 segments)", "setting": "[2]; Peak Dose dobutamine, Pre", "value": "6.6 ± 0.5"}, {"measurement": "Mean PSV (15 segments)", "setting": "[2]; Rest, Post", "value": "3.8 ± 0.2"}, {"measurement": "Mean PSV (15 segments)", "setting": "[2]; Rest, Pre", "value": "3.3 ± 0.2"}, {"measurement": "increase in peak dose PSV", "setting": "[2]; ischemic cohort, peak dose dobutamine, 8 weeks", "value": 24, "unit": "%"}, {"measurement": "increase in resting mean PSV following treatment", "setting": "[2]; ischemic cohort, rest, 8 weeks", "value": 15, "unit": "%"}, {"measurement": "deaths during the study period", "setting": "patients with CHF [3]; 8-week course", "value": "no deaths in either group"}, {"measurement": "Corrected QT Interval", "setting": "patients with CHF [3]; Post, after 8 weeks", "value": "413 ± 13", "unit": "ms"}, {"measurement": "Corrected QT Interval", "setting": "patients with CHF [3]; Pre (baseline)", "value": "413 ± 11", "unit": "ms"}, {"measurement": "Side effects", "setting": "patients with CHF [3]; perhexiline group, 8-week course", "value": "restricted to transient nausea and dizziness during the first week of treatment"}, {"measurement": "abnormal liver function tests or neuropathy", "setting": "patients with CHF [3]; with close serum level monitoring and titration", "value": "None of the patients in this study developed abnormal liver function tests or neuropathy"}, {"measurement": "Exercise Time", "setting": "patients with CHF [4]; [7]", "value": "12.3 ± 1.1", "unit": "min"}, {"measurement": "VO2max", "setting": "patients with CHF [4]; [7]", "value": "18.8 ± 1.1", "unit": "mL/min/kg"}, {"measurement": "Exercise Time", "setting": "patients with CHF [4]; Pre (baseline)", "value": "10.5 ± 1.2", "unit": "min"}, {"measurement": "VO2max", "setting": "patients with CHF [4]; Pre (baseline), perhexiline group", "value": "16.1 ± 0.6", "unit": "mL/min/kg"}, {"measurement": "increase in VO2 max following treatment", "setting": "patients with CHF [4]; [8]", "value": "2.7 ± 0.8", "unit": "mL/min/kg"}, {"measurement": "increase in VO2 max following treatment (relative)", "setting": "patients with CHF [4]; [8]", "value": 16.7, "unit": "%"}, {"measurement": "increase in VO2 max", "setting": "patients with CHF [4]; ischemic group, 8 weeks", "value": "2.9 ± 1.2", "unit": "mL/min/kg"}, {"measurement": "increase in VO2 max", "setting": "patients with CHF [4]; non-ischemic group, 8 weeks", "value": "2.5 ± 0.4", "unit": "mL/min/kg"}, {"measurement": "NYHA Class", "setting": "patients with CHF [5]; Post, after 8 weeks", "value": "1.9 ± 0.2^+"}, {"measurement": "NYHA Class", "setting": "patients with CHF [5]; Pre (baseline)", "value": "2.4 ± 0.1"}, {"measurement": "increase of mean LVEF following treatment", "setting": "patients with CHF [6]; 8 weeks", "value": "9.9 ± 2.0 absolute percentage points"}, {"measurement": "relative increase of mean LVEF", "setting": "patients with CHF [6]; 8 weeks", "value": 42, "unit": "%"}, {"measurement": "E:EA Ratio", "setting": "patients with CHF [6]; Post, after 8 weeks", "value": "6.5 ± 0.9"}, {"measurement": "Left ventricular ejection fraction", "setting": "patients with CHF [6]; Post, after 8 weeks", "value": "34 ± 2", "unit": "%"}, {"measurement": "Left ventricular end-diastolic volume", "setting": "patients with CHF [6]; Post, after 8 weeks", "value": "212 ± 9", "unit": "mL"}, {"measurement": "Left ventricular end-systolic volume", "setting": "patients with CHF [6]; Post, after 8 weeks", "value": "140 ± 8", "unit": "mL"}, {"measurement": "Long axis function", "setting": "patients with CHF [6]; Post, after 8 weeks", "value": "7.2 ± 0.6^|| cm/s"}, {"measurement": "E:EA Ratio", "setting": "patients with CHF [6]; Pre (baseline)", "value": "8.6 ± 0.6"}, {"measurement": "Left ventricular ejection fraction", "setting": "patients with CHF [6]; Pre (baseline)", "value": "24 ± 1", "unit": "%"}, {"measurement": "Left ventricular end-diastolic volume", "setting": "patients with CHF [6]; Pre (baseline)", "value": "232 ± 11", "unit": "mL"}, {"measurement": "Left ventricular end-systolic volume", "setting": "patients with CHF [6]; Pre (baseline)", "value": "176 ± 8", "unit": "mL"}, {"measurement": "Long axis function", "setting": "patients with CHF [6]; Pre (baseline)", "value": "5.8 ± 0.4", "unit": "cm/s"}, {"measurement": "concentration at 1 week", "setting": "Serum perhexiline levels; Week 1, 100 mg twice daily with dose titration", "value": "570 ± 190", "unit": "ng/mL"}, {"measurement": "concentration at 4 weeks", "setting": "Serum perhexiline levels; Week 4, 100 mg twice daily with dose titration", "value": "670 ± 200", "unit": "ng/mL"}, {"measurement": "concentration at 8 weeks", "setting": "Serum perhexiline levels; Week 8, 100 mg twice daily with dose titration", "value": "430 ± 120", "unit": "ng/mL"}]}]}
